Assay results: publication PMC4735555, “Crystal structure of the N-myristoylated lipopeptide-bound MHC class I complex” (Nature Communications, 2016)

Key:
2N5.1 = settings: cited from earlier work
Text: For example, human and simian immunodeficiency viruses (HIV and SIV) borrow host-derived N-myristoyltransferase and its substrate myristoyl-CoA, to couple a 14-carbon saturated fatty acid (myristic acid) to the N-terminal glycine residue of the Nef protein. […] To obtain an insight into its molecular identity, we generated several hundred monoclonal antibodies that recognized rhesus PBMCs and tested their abilities to block the presentation of C14nef5 to 2N5.1. […] The myristoyl group of the lipopeptide adopted a U-shaped configuration and fit perfectly with the extended B pocket. Furthermore, inter- and intramolecular VDW forces established throughout the acyl chain synergistically reinforced its stable binding to the B pocket. These structural f ... || (+ 1 further places)

Mamu-B*098 = experiment: X-ray crystal structure of the Mamu-B*098:C14nef5 complex; format: binding, rhesus macaque; settings: crystal structure at 1.76 Å, Mamu-B*098 with Cys167 mutated to Ser, rhesus β2m; PDB 4ZFZ
Protocol: Recombinant proteins were prepared as described previously with some modifications. Briefly, DNA constructs encoding the ectodomain of Mamu-B*098 (from Gly1 to Pro276 with the unpaired Cys167 mutated to Ser and a Met-Ala added to the N terminus) and rhesus β2m (from Ile1 to Met99 with a Met-Ala added to the N terminus) were synthesized and cloned into pLM1. The expression plasmids were introduced into the E. coli Rosetta 2 (DE3) pLysS strain (Novagen, Madison, WI) and colonies were inoculated into a Terrific Broth supplemented with 50 μg ml^−1 ampicillin. Isopropyl-β-D-thiogalactoside was added to the culture at a final concentration of 0.5 mM when the OD600 value of the culture reached 0.5. After an additional 6-h culture, bacteria were harvested and lysed in a buffer containing 50 mM Tris-HCl pH 8.0, 1 mM EDTA, 0.1% NaN3, 10 mM dithiothreitol (DTT), 100 mM NaCl, 1% Triton X-100, 1% deoxycholate and 5 mM MgCl2, followed by a treatment with DNase I. After 6 h of stirring, the samples were centrifuged and the pellets were washed twice with a wash buffer containing 50 mM Tris-HCl pH 8.0, 1 mM EDTA, 0.1% NaN3, 1 mM DTT, 100 mM NaCl and 0.5% Triton X-100, and once with a rinse buffer containing 50 mM Tris-HCl pH 8.0, 1 mM EDTA, 0.1% NaN3 and 1 mM DTT. […]

Substance: C14-Gly-Gly-Ala-Ile-Ser [C14nef5, N-myristoylated 5-mer peptide (C14-Gly-Gly-Ala-Ile-Ser; C14nef5) derived from the SIV Nef protein]
- antigenic activity, C14nef5 versus its Ser to Thr mutant (2N5.1): virtually identical antigenic activities
- recognition by rhesus macaque CD8+ CTL line 2N5.1 (2N5.1): specifically recognizes
- requirement of PBMCs for recognition by 2N5.1 (2N5.1; irradiated PBMCs): requires the presence of irradiated peripheral blood mononuclear cells (PBMCs)
- electron density in the Ag-binding groove of Mamu-B*098 (Mamu-B*098): Continuous electron density corresponding to C14nef5 was observed in the Ag-binding groove
